Calls of active or inactive are those of the source. No cut-off for these calls is given here.
What was measured:
[1] = system: SK-MEL-2; assay: Effect on NRAS protein translation in human SK-MEL-2 cells at 1/2 times IC50 incubated for 24 hrs by Western blot analysis; format: functional, cell-based
[2] = system: SK-MEL-2; assay: Cytotoxicity against human SK-MEL-2 cells expressing NRAS mutant assessed as cell growth inhibition incubated for 48 hrs by MTT assay; format: functional, cell-based; settings: SK-MEL-2, 48 h
[3] = system: SK-MEL-2; assay: Upregulation of NRAS mRNA level in human SK-MEL-2 cells at 1/2 times IC50 incubated for 24 hrs by RT-qPCR analysis; format: functional, cell-based
[4] = system: SK-MEL-2; assay: Cytotoxicity against human SK-MEL-2 cells assessed as cell growth inhibition incubated for 24 hrs by MTT assay; format: functional, cell-based; settings: SK-MEL-2, 24 h
[5] = system: SK-MEL-2; assay: Antiproliferative activity against human SK-MEL-2 cells assessed as inhibition of colony formation at 1.5 uM measured after 10 days by crystal violet staining based assay; format: functional, cell-based; settings: time 10.0 day
[6] = system: SK-MEL-2; assay: Synergistic cytotoxicity against human SK-MEL-2 cells expressing NRAS mutant assessed as combination index measured for 48 hrs in presence of LY3214996 by MTT assay; format: functional
[7] = system: SK-MEL-2; assay: Synergistic cytotoxicity against human SK-MEL-2 cells expressing NRAS mutant assessed as combination index measured for 48 hrs in presence of MEK-162 by MTT assay; format: functional
[8] = system: SK-MEL-2; assay: Synergistic cytotoxicity against human SK-MEL-2 cells expressing NRAS mutant assessed as combination index measured for 48 hrs in presence of Rapamycin by MTT assay; format: functional
[9] = system: SK-MEL-2; assay: Synergistic cytotoxicity against human SK-MEL-2 cells expressing NRAS mutant assessed as combination index measured for 48 hrs in presence of MK2206 by MTT assay; format: functional

Row | SMILES | Activity [1] | IC50 [2] [µM] | Activity [3] | IC50 [4] [µM] | inhibition [5] | CI [6] | CI [7] | CI [8] | CI [9]
1 | Nc1ccc2cc3ccc(N)cc3nc2c1 [PROFLAVINE] | inactive | 1.6 | Active | 5.31 | – | – | – | – | –
2 | CO[C@H]1C[C@@H]2CC[C@@H](C)[C@@](O)(O2)C(=O)C(=O)N2CCCC[C@H]2C(=O)O[C@H]([C@H](C)C[C@@H]2CC[C@@H](O)[C@H](OC)C2)CC(=O)[C@H](C)/C=C(\C)[C@@H](O)[C@@H](OC)C(=O)[C@H](C)C[C@H](C)/C=C/C=C/C=C/1C [SIROLIMUS] | – | – | – | – | Active | 0.5 | 0.5 | – | –
3 | Cn1nccc1Nc1nccc(-c2cc3c(s2)C(C)(C)N(CCN2CCOCC2)C3=O)n1 [TEMUTERKIB] | – | – | – | – | Active | – | – | 0.5 | 0.5
